We go through two compounds from patent US7842700B2, “Crystals of isopropyl ester of N-(2,6-dichlorobenzoyl)-4-[6-(methylamino)methyl-1-methyl-2,4-dioxo-1,4-dihydroquinazoline-3(2H)-yl]-L-phenylalanine hydrochloride, production method thereof and use thereof” (Ajinomoto Co., Inc., priority 2005, dated 2010).

Each structure is given as a SMILES string.

Data set [1] can be described thus: Powder X-ray diffraction measurement under the control of relative humidity. Format: physicochemical. The note with it: dry: 50° C. under reduced pressure; wet: 85% relative humidity. As for the experimental part:
Powder X-Ray Diffraction Measurement Under the Control of Relative Humidity
The powder X-ray diffraction of each of crystal form Cl5 and crystal form Mal2 was measured in the following condition, and the diffraction patterns between dry one and wet one were compared. However, there was no difference thereof in each crystal.
Drying condition (dry): measurement of a sample with drying it at 50° C. under reduced pressure
Humid condition (wet): measurement of a sample under 85% relative humidity
Powder diffractometer: RINT2100S by RIGAKU (and a temperature and humidity attachment for said diffractometer) Humidity generator: SRH-1R Shinei Co., Inc.

A short description of data set [2]: Preservation stability test. Type of data set: physicochemical. To be noted: 4 weeks; 40° C./75% relative humidity opened, 60° C./opened, vs room temperature/closed control. As to the method:
Preservation Stability Test
Crystal form Cl5, crystal form Br5 and crystal form A were preserved in the following condition, and then the amount of impurities in each sample was compared. However, the increase in the impurities by heating was not observed.
• 40° C./75% relative humidity—opened • 60° C./opened • Room temperature/closed (control)

Data set [3] deals with lymphocytes in the peripheral blood. The data set is described as follows: Activity to elevate the number of lymphocytes in the peripheral blood in a rat. Format: in vivo. The note with it: 30 mg/kg oral, male Wistar rats, 12 hours after administration, control = 100%. As for the experimental part:
Activity to Elevate the Number of Lymphocytes in the Peripheral Blood in a Rat
Therefore, the activity of the compound of the formula (I) to elevate the number of lymphocytes in the rat was examined.
The dosing solution was prepared by dissolving the compound of the formula (I) in dimethylsulfoxide, adding a mixed solution of polyethylene glycol 400: propylene glycol=1:1 thereto and turning it upside and down repeatedly. The final concentration of DMSO was adjusted to 2.5%.
The dosing solution of a test substance (30 mg/kg) was orally administered to male Wistar rats (6 to 8 weeks age) in the amount of 4 mL/kg. After the settled time points after the administration, the blood was drawn from the abdominal large vein under anesthesia and mixed in an EDTA-2K coated container for blood collection. Then, the number of lymphocytes in the peripheral blood was determined by an automated comprehensive hematology analyzer (SF-3000, Sysmex). The test was conducted in n=5, and the ratio (%) of the number of lymphocytes in the peripheral blood in a test substance-administered group to that in a vehicle-treated group (a control group) was calculated while the average value of the number of lymphocytes in the peripheral blood in a control group was determined to be 100%.

As for `CNCc1ccc2c(c1)c(=O)n(-c1ccc(C[C@H](NC(=O)c3c(Cl)cccc3Cl)C(=O)OC(C)C)cc1)c(=O)n2C` [crystal form Cl5], in data set [1], the “difference of powder X-ray diffraction patterns between dry and wet” value is recorded as “no difference”. Further, the “increase in the impurities by heating” value in data set [2] is “not observed”.

With `CNCc1ccc2c(c1)c(=O)n(-c1ccc(C[C@H](NC(=O)c3c(Cl)cccc3Cl)C(=O)OC(C)C)cc1)c(=O)n2C` [compound of the formula (I), isopropyl ester of N-(2,6-dichlorobenzoyl)-4-[6-(methylamino)methyl-1-methyl-2,4-dioxo-1,4-dihydroquinazoline-3(2H)-yl]-L-phenylalanine], in data set [3], the “ratio (%) of the number of lymphocytes in the peripheral blood to that in a vehicle-treated group” value was at least 150%.
